Read-outs that look alike come from different tables or passages of the source.
Assays:
PI3K-γ kinase (p110γ) = target: T1, PI3K-γ kinase (p110γ) (Homo sapiens, UniProt P48736); test: Determination of PI3K kinase activity (ADP Transcreener, fluorescence polarization); assay type: biochemical; details: Table 1; ATP 10 μM; read-out: PI3K-γ/nM (IC50 of inhibitory activity against PI3K kinase)
T1 construct: purchased Invitrogen PV4786
Method in brief: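 Each 25 μL reaction held PI3K enzyme (p110α/p85α 3 ng, p110β/p85α 60 ng, p110δ/p85α 90 ng, or p110γ 100 ng), 10 μM ATP, 30 μM PIP2:PS and 2% DMSO, incubated 1 h at 25 °C. Compounds were tested in duplicate across a 3-fold series, 0.00046–1 μM as prepared. ADP was detected by Transcreener fluorescence polarization, quantified against an ADP/ATP standard curve, and IC50 fitted.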

[1] = target: T2, PI3K-δ kinase (p110δ/p85α) (Homo sapiens, UniProt O00329); test: as above; assay type: biochemical; details: Table 1; ATP 10 μM; read-out: PI3K-δ/nM (IC50 of inhibitory activity against PI3K kinase)
T2 construct: purchased Millipore 14-604M
T2 sequence (O00329 whole entry): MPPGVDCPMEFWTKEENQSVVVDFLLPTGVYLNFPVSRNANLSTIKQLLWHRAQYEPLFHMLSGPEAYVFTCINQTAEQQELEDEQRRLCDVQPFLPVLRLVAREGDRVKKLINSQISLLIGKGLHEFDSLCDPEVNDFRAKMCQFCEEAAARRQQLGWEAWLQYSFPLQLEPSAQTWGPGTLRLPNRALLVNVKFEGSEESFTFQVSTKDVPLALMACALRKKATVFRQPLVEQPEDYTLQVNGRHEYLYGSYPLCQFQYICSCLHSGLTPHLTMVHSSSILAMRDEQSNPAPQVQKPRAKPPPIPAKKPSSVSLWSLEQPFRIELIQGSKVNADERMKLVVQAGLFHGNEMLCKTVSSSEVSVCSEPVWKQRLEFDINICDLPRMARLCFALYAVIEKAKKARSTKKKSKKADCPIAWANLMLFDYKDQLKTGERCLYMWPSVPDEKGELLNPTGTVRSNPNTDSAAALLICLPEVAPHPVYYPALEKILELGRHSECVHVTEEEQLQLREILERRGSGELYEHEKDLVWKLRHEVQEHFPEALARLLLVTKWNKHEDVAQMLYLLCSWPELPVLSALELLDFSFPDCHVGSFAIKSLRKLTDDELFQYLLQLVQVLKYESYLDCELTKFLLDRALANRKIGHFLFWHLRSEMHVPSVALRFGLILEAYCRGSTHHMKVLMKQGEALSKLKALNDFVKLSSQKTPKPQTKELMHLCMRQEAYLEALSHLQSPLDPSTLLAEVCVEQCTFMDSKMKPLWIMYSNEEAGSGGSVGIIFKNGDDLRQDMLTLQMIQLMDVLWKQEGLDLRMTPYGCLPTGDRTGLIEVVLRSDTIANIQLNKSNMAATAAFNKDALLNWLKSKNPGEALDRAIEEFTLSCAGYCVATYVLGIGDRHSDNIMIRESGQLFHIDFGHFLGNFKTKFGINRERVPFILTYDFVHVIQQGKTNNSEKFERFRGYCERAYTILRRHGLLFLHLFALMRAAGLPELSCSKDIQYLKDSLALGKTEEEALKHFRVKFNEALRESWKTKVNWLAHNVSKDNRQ
T2 sequence (P27986 whole entry partner): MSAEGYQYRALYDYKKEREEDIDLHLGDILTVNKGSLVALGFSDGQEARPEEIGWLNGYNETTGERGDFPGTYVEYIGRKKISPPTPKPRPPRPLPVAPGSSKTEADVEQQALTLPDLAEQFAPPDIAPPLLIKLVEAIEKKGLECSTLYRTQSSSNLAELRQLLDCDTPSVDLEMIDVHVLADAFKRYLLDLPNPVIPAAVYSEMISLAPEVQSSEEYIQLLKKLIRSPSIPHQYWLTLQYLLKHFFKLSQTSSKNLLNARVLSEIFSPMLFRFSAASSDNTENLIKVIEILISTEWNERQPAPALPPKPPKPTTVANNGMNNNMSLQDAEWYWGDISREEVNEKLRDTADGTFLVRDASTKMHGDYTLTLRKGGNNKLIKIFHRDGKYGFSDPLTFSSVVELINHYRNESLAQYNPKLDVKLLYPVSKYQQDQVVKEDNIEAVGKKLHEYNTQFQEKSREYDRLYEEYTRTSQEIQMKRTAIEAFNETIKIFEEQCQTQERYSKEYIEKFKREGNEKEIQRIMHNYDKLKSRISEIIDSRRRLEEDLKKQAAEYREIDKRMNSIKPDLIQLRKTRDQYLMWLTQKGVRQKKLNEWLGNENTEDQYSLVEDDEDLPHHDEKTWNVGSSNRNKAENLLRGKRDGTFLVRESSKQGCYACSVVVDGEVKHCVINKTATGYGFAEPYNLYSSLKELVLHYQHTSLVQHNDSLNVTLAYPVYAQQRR

[2] = target: T3, PI3K-α kinase (p110α/p85α) (Homo sapiens, UniProt P42336); test: as above; assay type: biochemical; details: for IC50: ATP 10 μM; for increase of inhibitory activity against PI3K-α kinase compared with BKM-120: relative to BKM-120
T3 construct: purchased Invitrogen PV4788
T3 sequence (P42336 whole entry): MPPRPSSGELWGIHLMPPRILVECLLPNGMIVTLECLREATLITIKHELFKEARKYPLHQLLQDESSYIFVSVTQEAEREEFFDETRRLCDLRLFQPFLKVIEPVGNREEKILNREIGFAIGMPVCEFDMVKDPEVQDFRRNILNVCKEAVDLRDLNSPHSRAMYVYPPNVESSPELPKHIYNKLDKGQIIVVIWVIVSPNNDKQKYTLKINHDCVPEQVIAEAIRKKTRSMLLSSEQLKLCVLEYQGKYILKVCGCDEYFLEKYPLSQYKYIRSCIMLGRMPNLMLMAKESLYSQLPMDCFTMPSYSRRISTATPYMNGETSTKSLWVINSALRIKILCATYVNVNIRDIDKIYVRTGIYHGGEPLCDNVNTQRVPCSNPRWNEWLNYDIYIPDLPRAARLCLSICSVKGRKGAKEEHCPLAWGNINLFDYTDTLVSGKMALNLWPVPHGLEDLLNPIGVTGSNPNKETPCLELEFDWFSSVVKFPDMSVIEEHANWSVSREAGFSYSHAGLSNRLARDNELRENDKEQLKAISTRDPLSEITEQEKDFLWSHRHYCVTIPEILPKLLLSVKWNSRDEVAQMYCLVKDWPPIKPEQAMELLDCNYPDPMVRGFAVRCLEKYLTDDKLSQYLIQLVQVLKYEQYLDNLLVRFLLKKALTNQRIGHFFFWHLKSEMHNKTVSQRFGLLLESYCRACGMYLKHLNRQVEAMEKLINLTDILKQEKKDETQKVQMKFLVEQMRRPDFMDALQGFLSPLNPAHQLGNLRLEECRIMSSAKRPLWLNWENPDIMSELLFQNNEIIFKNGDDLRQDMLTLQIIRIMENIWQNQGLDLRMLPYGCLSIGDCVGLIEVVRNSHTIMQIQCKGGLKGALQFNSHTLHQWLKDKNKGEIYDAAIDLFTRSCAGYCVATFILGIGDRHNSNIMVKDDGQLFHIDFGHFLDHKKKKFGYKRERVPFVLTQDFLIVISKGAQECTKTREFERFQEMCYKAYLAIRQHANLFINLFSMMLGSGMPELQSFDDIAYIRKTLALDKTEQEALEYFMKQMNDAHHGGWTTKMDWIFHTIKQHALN
T3 sequence (P27986 whole entry partner): as the sequence (P27986 whole entry partner) above

[3] = target: T4, PI3K-β kinase (p110β/p85α) (Homo sapiens, UniProt P42338); test: as above; assay type: biochemical; details: Table 1; ATP 10 μM; read-out: PI3K-β/nM (IC50 of inhibitory activity against PI3K kinase)
T4 construct: purchased Millipore 14-603
T4 sequence (P42338 whole entry): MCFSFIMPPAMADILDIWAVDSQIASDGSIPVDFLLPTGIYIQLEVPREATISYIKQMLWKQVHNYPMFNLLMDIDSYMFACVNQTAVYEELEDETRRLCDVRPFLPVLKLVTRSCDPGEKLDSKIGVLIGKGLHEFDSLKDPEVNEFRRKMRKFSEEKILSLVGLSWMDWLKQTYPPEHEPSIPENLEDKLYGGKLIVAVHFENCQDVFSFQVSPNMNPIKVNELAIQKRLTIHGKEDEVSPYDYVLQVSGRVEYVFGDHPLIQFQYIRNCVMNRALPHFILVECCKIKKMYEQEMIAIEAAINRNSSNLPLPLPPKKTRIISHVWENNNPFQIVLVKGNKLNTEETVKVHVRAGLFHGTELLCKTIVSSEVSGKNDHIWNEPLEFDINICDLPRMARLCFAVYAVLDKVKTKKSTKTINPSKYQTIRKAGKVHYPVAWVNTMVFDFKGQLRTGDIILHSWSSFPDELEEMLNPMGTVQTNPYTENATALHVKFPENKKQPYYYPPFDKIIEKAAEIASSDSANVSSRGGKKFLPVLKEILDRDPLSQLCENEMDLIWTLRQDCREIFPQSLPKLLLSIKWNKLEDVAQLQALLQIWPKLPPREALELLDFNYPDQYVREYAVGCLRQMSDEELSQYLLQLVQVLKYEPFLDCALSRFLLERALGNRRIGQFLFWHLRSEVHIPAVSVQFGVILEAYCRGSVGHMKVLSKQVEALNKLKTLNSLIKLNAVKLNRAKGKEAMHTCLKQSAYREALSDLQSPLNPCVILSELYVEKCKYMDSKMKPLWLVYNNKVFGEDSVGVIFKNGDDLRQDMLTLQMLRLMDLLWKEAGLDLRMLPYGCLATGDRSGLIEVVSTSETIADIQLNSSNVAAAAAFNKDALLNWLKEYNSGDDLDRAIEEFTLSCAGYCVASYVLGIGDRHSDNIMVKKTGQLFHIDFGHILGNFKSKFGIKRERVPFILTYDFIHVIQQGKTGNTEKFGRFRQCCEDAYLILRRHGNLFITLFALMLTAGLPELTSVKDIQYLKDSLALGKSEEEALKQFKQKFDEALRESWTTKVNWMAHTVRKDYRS
T4 sequence (P27986 whole entry partner): as the sequence (P27986 whole entry partner) above

MCF-7 cells = test: Cell inhibitory activity detected by MTT assay, MCF-7; assay type: cell-based; details: Homo sapiens, MCF7, 72 h, read-out: MCF-7 cell (IC50/nM), cell growth inhibition
Method in brief: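 MCF-7 cells in DMEM + 10% FBS were treated after adherence with compounds at 8 concentrations (0.0046–10 μM) for 72 h at 37 °C, 5% CO2.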

[4] = Table 1, read-out: PI3K-α/nM (IC50 of inhibitory activity against PI3K kinase)

T1 sequence (P48736 whole entry): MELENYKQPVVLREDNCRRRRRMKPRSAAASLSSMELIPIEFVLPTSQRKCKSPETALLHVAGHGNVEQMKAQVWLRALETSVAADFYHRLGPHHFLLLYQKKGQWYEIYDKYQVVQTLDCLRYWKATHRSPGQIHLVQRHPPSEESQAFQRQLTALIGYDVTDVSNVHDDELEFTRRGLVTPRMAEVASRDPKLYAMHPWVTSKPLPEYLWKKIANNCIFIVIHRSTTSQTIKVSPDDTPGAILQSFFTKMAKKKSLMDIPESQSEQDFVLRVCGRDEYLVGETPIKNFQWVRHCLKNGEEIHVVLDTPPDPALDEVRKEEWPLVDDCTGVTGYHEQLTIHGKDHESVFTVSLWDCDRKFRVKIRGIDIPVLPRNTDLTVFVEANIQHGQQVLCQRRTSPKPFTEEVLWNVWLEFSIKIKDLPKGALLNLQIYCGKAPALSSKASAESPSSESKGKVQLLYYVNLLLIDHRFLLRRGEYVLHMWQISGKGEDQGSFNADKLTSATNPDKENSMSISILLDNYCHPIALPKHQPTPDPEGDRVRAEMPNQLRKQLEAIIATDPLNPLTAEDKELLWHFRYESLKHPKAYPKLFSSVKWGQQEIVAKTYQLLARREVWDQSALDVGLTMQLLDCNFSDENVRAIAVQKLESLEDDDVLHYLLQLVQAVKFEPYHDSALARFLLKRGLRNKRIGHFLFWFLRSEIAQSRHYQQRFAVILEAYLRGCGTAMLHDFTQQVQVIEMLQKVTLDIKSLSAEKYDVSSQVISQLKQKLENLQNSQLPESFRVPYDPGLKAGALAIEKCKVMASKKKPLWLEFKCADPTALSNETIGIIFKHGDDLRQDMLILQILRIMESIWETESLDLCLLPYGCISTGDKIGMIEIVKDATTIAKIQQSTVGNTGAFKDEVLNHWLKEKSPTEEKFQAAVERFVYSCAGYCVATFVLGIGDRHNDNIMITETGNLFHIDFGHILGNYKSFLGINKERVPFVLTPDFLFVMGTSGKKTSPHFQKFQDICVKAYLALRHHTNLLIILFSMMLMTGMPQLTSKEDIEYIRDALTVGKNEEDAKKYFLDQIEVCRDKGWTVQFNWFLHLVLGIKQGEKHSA

SMILES | IC50 (PI3K-γ kinase (p110γ)) [nM] | IC50 [1] [nM] | IC50 [2, 4] [nM] | IC50 [3] [nM] | IC50 (MCF-7 cells) [nM] | increase of inhibitory activity against PI3K-α kinase compared with BKM-120 [2] | IC50 ([2]; Table 2, read-out: PI3K-α/nM (IC50 of inhibitory activity against PI3K-α kinase)) [nM]
CS(=O)(=O)C1(c2cc(-c3cnc(N)cc3C(F)(F)F)nc(N3CCOCC3)n2)CCC1 [Compound S-4] | 354 | 184 | 12 | 527 |  |  | 
CC(C)S(=O)(=O)C1(c2cc(-c3cnc(N)cc3C(F)(F)F)nc(N3CCOC[C@@H]3C)n2)CCC1 [Compound S-13, (S)-5-(6-(1-(isopropylsulfonyl)cyclobutyl)-2-(3-methylmorpholino)pyrimidin-4-yl)-4-(trifluoromethyl)pyridin-2-amine] | > 3000 | 226 | 67 | 1670 | 153 |  | 
CC(C)S(=O)(=O)C1(c2cc(-c3cnc(N)cc3C(F)(F)F)nc(N3CCOCC3)n2)CC1 [Compound S-18] | 957 | 246 |  | 548 | 437 |  | 
CC(C)S(=O)(=O)C1(c2cc(-c3cnc(N)cc3C(F)(F)F)nc(N3CCOCC3)n2)CCC1 [Compound S-19] | > 3000 | 493 | 80 | 512 |  |  | 
Nc1cc(C(F)(F)F)c(-c2cc(C3(S(=O)(=O)c4ccccc4)CCC3)nc(N3CCOCC3)n2)cn1 [Compound S-20] | 1160 | 42 | 24 | 676 |  |  | 
CCS(=O)(=O)C1(c2cc(-c3cnc(N)cc3C(F)(F)F)nc(N3CCOC[C@@H]3C)n2)CCC1 [Compound S-23] | 525 | 62 | 16 | 620 | 246 |  | 
C[C@H]1COCCN1c1nc(-c2cnc(N)cc2Cl)cc(C2(S(C)(=O)=O)CCC2)n1 [Compound S-31] | 148 | 103 | 12 | 171 | 45 |  | 
CS(=O)(=O)C1(c2cc(-c3cnc(N)cc3Cl)nc(N3CCOCC3)n2)CC1 [Compound S-37, 4-chloro-5-(6-(1-(methylsulfonyl)cyclopropyl)-2-morpholinopyrimidin-4-yl)pyridin-2-amine] | 114 | 84 | 4 | 28 | 258 | about 10 times | 4
COC(C)(C)c1cc(-c2cnc(N)cc2C(F)(F)F)nc(N2CCOCC2)n1 [Compound S-71, 5-(6-(2-methoxypropan-2-yl)-2-morpholinopyrimidin-4-yl)-4-(trifluoromethyl) pyridin-2-amine] | 1030 |  | 9 | 177 | 436 |  | 

Continued, values first:

IC50 (PI3K-γ kinase (p110γ)) [nM] | IC50 [1] [nM] | IC50 [2, 4] [nM] | IC50 [3] [nM] | IC50 (MCF-7 cells) [nM] | increase of inhibitory activity against PI3K-α kinase compared with BKM-120 [2] | IC50 ([2]; Table 2, read-out: PI3K-α/nM (IC50 of inhibitory activity against PI3K-α kinase)) [nM] | SMILES
155 | 63 | 5 | 105 | 78 | about 10 times |  | C[C@H]1COCCN1c1nc(-c2cnc(N)cc2C(F)(F)F)cc(C2(S(C)(=O)=O)CCC2)n1 [Compound S-9]
592 | 367 | 42 | 1140 | 340 |  |  | CS(=O)(=O)C1(c2cc(-c3cnc(N)cc3C(F)(F)F)nc(N3CCOCC3)n2)CCCC1 [Compound S-10]
141 | 12 | 12 | 18 | 101 |  |  | C[C@H]1COCCN1c1nc(-c2cnc(N)nc2C(F)(F)F)cc(C2(S(C)(=O)=O)CCC2)n1 [Compound S-30]
923 | 161 | 76 | 977 | 73 |  |  | C[C@H]1COCCN1c1nc(-c2ccc(N)nc2)cc(C2(S(C)(=O)=O)CCC2)n1 [Compound S-32]
112 | 58 | 12 | 115 | 79 |  |  | C[C@H]1COCCN1c1nc(-c2cnc(N)nc2)cc(C2(S(C)(=O)=O)CCC2)n1 [Compound S-33]
204 |  | 20 |  | 11 |  |  | C[C@H]1COCCN1c1nc(-c2cnc(N)cc2F)cc(C2(S(C)(=O)=O)CC2)n1 [Compound S-83]
